Results: article PMC12010006, “Subnanomolar MAS-related G protein-coupled receptor-X2/B2 antagonists with efficacy in human mast cells and disease models” (Signal Transduction and Targeted Therapy, 2025)
Where two headings read alike, the source gives them in different places. Blank lines part the entries; values can stand above or below the compound they belong to.

Assays:
MRGPRX2 [1] = target: T1, MRGPRX2 (Homo sapiens, UniProt Q96LB1); test: β-arrestin recruitment assay (antagonist mode), β-arrestin-CHO cells recombinantly expressing MRGPRX2; format: cell-based; parameters: expressed in transfected cells
T1 sequence (Q96LB1 1-330): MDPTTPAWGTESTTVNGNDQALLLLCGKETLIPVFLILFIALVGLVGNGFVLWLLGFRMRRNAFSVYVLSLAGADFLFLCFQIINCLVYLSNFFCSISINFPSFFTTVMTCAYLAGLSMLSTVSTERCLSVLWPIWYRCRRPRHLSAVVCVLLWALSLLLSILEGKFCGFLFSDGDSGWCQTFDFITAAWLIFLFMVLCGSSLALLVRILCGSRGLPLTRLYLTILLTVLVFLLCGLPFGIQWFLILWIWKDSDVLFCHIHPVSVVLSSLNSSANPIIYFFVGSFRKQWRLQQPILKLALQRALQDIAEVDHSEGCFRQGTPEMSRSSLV

MRGPRX2 [2] = target: T1, MRGPRX2; test: Ca2+ mobilization assay, LN229 cells overexpressing MRGPRX2; format: cell-based; parameters: expressed in transfected cells; host or cells: LN229 human glioblastoma cells; plasmid pLXSN-MRGPRX2 (Addgene #213960); settings: for Ki: versus CST-14 (EC80 800 nM, EC50 452 nM), Cheng-Prusoff, read-out: Ca2+ assay Ki ± SEM
Method: Glioblastoma LN229-MRGPRX2 stably expressing MRGPRX2 (produced by retroviral transfection) were seeded into black sterile 96-well microplates at a density of 5 × 10^4 cells/well in 200 µL of DMEM/F12-Nut Mix medium, supplemented with 10% FCS, 100 U/mL of penicillin 100 µg/mL of streptomycin, and 200 µg/mL of G418 and incubated for 18–22 h.
The next day Fluo-4 AM Solution (1 mM) (Thermo Fisher Scientific) was prepared and used to prepare cell loading dye solution consisting of 4970 µL of Hank’s Buffered Saline Solution (HBSS) buffer, 15 µL of 20% Pluronic-F and 15 µL of 1 mM Fluo-4 AM. Next, the cell medium was removed and exchanged for 40 µL of dye solution per well (final concentration of Fluo-4 AM: 3 µM). The cell plate was incubated for 60 min in the dark at room temperature, then the dye solution was removed and replaced by 189 µL HBSS. Subsequently, 1 µL of antagonist diluted in DMSO was added and incubated for 30 min at room temperature and in the dark (final DMSO concentration 0.5%, v/v). CST-14 or another agonist prepared in HBSS as well as carbachol (final concentration 100 µM) were pipetted (10 µL) using a FlexStation® 3 Multi-Mode Microplate Reader. For the determination of baseline fluorescence, HBSS buffer containing solvent of the investigated compound was used. Fluorescence was measured for 120 intervals of 1 s (number of flashes: 10) at a wavelength of 525 nm (excitation 485 nm) using the SoftMax® Pro5.1 Microplate Data Acquisition & Analysis Software. Three independent experiments were performed in duplicates. Measurements are provided in relative fluorescence units and normalized to the maximal effect of CST-14.

[3] = versus CST-14 (EC80 1,000 nM, EC50 483 nM), Cheng-Prusoff, read-out: β-Arrestin assay Ki ± SEM

IC50 (MRGPRX2 [1]; versus CST-14 (EC80 1.0 µM), read-out: IC50, β-arrestin assay): 2420 ± 220 nM
Ki (MRGPRX2 [1]; [3]): 788 ± 143 nM
agonistic activity in Ca2+ assays (MRGPRX2 [2]): did not show any agonistic activity
Ki (MRGPRX2 [2]): 246 ± 125 nM
SMILES: CCCc1c(C)[nH]c2nc3ccccc3n2c1=O [Compound 1, 2-methyl-3-propylbenzo[4,5]imidazo[1,2-a]pyrimidin-4(1H)-one]

blockade of MRGPRX2 activation (MRGPRX2 [1]; 10 µM, versus CST-14 (1 µM)): completely blocked
difference of Ki versus other agonists from the Ki value versus CST-14 (MRGPRX2 [1]; all investigated agonists): < 2 fold
Schild plot slope (MRGPRX2 [1]; versus (R)-ZINC-3573): 0.891
IC50 (MRGPRX2 [1]; versus (R)-ZINC-3573 (EC80 2 µM), read-out: IC50 versus (R)-ZINC-3573, β-arrestin assay): 11.3 ± 3.1 nM
Ki (MRGPRX2 [1]; versus (R)-ZINC-3573 (EC80 2 µM), read-out: Ki versus (R)-ZINC-3573, β-arrestin assay): 5.44 nM
Kb (MRGPRX2 [1]; versus (R)-ZINC-3573, read-out: KB value (Schild plot)): 7.59 nM
Kb (MRGPRX2 [1]; versus (R)-ZINC-3573, read-out: pKB value (Schild plot) (converted)): 7.41 nM
Ki (MRGPRX2 [1]; versus C48/80 (EC80 18 µM), read-out: Ki versus compound 48/80, β-arrestin assay): 3.68 nM
Ki (MRGPRX2 [1]; [3]): 6.81 nM
Kb (MRGPRX2 [1]; versus CST-14, read-out: pKB value (Schild plot) (converted)): 6.76 nM
mode of action (inhibition type) (MRGPRX2 [1]; versus CST-14 and (R)-ZINC-3573): competitive mode of action
selectivity for MRGPRX2 versus other MRGPRX subtypes (MRGPRX2 [1]; versus MRGPRX1, -X3, -X4): at least 1000 fold
IC50 (MRGPRX2 [1]; versus SP (EC80 3 µM), read-out: IC50 versus substance P, β-arrestin assay): 30.5 ± 6.3 nM
Ki (MRGPRX2 [1]; versus SP (EC80 3 µM), read-out: Ki versus substance P, β-arrestin assay): 8.82 nM
IC50 (MRGPRX2 [1]; versus clomipramine (EC80 13 µM), read-out: IC50 versus clomipramine, β-arrestin assay): 17.2 ± 0.4 nM
Ki (MRGPRX2 [1]; versus clomipramine (EC80 13 µM), read-out: Ki versus clomipramine, β-arrestin assay): 7.04 nM
fold higher potency compared to the 8-monofluorinated derivative (30) (MRGPRX2 [2]): about 4 fold
fold increase in potency compared to 10 (MRGPRX2 [2]): 7 fold
fold increase in potency compared to hit compound 1 (MRGPRX2 [2]): 1870 fold
MRGPRX2 antagonistic potency in Ca2+ assay, in words (MRGPRX2 [2]; versus CST-14): subnanomolar potencies
Ki (MRGPRX2 [2]): 0.142 nM
SMILES: CCc1c(C(C)C)[nH]c2nc3cc(F)c(F)cc3n2c1=O [Compound 24, 3-ethyl-7,8-difluoro-2-isopropylbenzo[4,5]imidazo [1,2-a] pyrimidin-4(1H)-one]
